In US20020077350A1 (Ashni Naturaceuticals, Inc., priority 2000, published 2002):
Entries after “also recorded” stand apart in the source; their conditions may differ.

Assays:
COX-2 = format: cell-based, human; conditions: Jurkat cells, with and without arachidonic acid or arachidonic acid not specified
Description: COX-2 is inducible in the Jurkat cell by PMA.
Cell plating: The Jurkat cells are propagated in suspension according to the instructions of the supplier. For experimentation, cells are seeded from a log-phase culture at a density of 1×10^5 cells per mL in 100 mm plates, 20 mL per plate, 3 plates per treatment. Serum concentration in the test medium is maintained at 0.5%.
Complete transfers are accomplished in 25-30 minutes at 500 mA. Membranes used for blotting are blocked by incubating in TBS (Tris buffered saline, 50 mM tris, 150 mM NaCl, pH 7.5) containing 5% nonfat dry milk for 30 minutes at room temperature. COX-2 protein is visualized by incubation of the blots with the anti-COX-2 antibody in TBST (0.5% Tween 20 in TBS) for two hours and then a second incubation at room temperature with alkaline phosphatase-conjugated secondary antibody diluted 1:1000 in TBST for two hours. The enzymatic reaction is developed for 15 minutes. The molecular weight of COX-2 is estimated by adding a molecular weight standard to reference lanes and staining the membrane filters with amido black 10B.
Blots are translated into TIFF-formatted files with a Microtech 600GS scanner and quantified using Scan Analysis (BIOSOFT, Cambridge UK). Summary scans are then printed and peak heights are measured directly from the figure. One density unit (Du) is defined as one mm of the resulting peak height.
Appropriate controls receive solvent only. […] Twenty-four hours after treatment, the cells are harvested, lysed and western blotting is done for the determination of COX-2 protein expression.

[1] = gastrointestinal disturbance, nausea and vomiting, hypotension, edema; cited from earlier work

Row | SMILES | inhibition of COX-2 enzyme protein expression (COX-2) | patients showing some type of side effects [1]
1 | C=C1CC[C@@H]2[C@](C)(CO)[C@H](O)CC[C@@]2(C)[C@@H]1C/C=C1/C(=O)OC[C@H]1O [Andrographolide] | does not inhibit; also recorded: little effect | 
2 | CC1(C)CC[C@]2(C(=O)O)CC[C@]3(C)C(=CC[C@@H]4[C@@]5(C)CC[C@H](O)C(C)(C)[C@@H]5CC[C@]43C)[C@@H]2C1 [Oleanolic acid] | does not inhibit | 
3 | CC(C)[C@]12O[C@H]1[C@@H]1O[C@]13[C@]1(O[C@H]1C[C@H]1C4=C(CC[C@@]13C)C(=O)OC4)[C@@H]2O [Triptolide] |  | Approximately 28%
4 | C[C@H]1[C@H](C)CC[C@]2(C(=O)O)CC[C@]3(C)C(=CC[C@@H]4[C@@]5(C)CC[C@H](O)C(C)(C)[C@@H]5CC[C@]43C)[C@H]12 [Ursolic acid] | does not inhibit | 
